What was measured:
[1] = biological target: Peptidyl-prolyl cis-trans isomerase A (Homo sapiens, UniProt P62937); test: PPIase Assay; conditions: pH 7.8; 5 °C
[2] = biological target: Peptidyl-prolyl cis-trans isomerase B (Human, UniProt P23284); test: PPIase Assay; conditions: pH 7.8; 5 °C
[3] = biological target: Peptidyl-prolyl cis-trans isomerase H (Homo sapiens, UniProt O43447); test: PPIase Assay; conditions: pH 7.8; 5 °C
[4] = biological target: T1, Peptidyl-prolyl cis-trans isomerase-like 1 (Homo sapiens, UniProt Q9Y3C6); test: PPIase Assay; conditions: pH 7.8; 5 °C
T1 sequence (Q9Y3C6 whole entry): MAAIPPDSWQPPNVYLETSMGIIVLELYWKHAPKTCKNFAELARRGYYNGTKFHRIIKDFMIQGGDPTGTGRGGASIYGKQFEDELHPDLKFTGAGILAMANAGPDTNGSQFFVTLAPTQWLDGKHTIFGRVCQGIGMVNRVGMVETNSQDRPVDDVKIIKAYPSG

[5] = biological target: Peptidyl-prolyl cis-trans isomerase C (Mus musculus) (UniProt P30412); test: PPIase activity assay were performed at 283 K in quartz cuvettes with a path length of 1 cm under vigorous stirring with a Hewlett-Packard 8453A UV-vis spectrophotometer in 35 mM HEPES buffer (pH 7.8).
Chain of Peptidyl-prolyl cis-trans isomerase C (Mus musculus) (P30412 whole entry, looked up): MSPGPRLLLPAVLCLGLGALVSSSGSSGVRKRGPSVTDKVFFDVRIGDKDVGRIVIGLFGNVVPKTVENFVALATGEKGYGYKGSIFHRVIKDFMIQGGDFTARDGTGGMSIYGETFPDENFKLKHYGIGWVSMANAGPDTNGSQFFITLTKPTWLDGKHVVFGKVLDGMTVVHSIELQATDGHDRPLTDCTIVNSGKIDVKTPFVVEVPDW

Chain of Peptidyl-prolyl cis-trans isomerase A (P62937 whole entry): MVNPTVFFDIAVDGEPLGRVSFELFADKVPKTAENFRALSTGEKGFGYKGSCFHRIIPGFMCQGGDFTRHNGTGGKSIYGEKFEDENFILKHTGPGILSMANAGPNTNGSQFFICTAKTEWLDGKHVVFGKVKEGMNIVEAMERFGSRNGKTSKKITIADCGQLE
Chain of Peptidyl-prolyl cis-trans isomerase B (P23284 whole entry): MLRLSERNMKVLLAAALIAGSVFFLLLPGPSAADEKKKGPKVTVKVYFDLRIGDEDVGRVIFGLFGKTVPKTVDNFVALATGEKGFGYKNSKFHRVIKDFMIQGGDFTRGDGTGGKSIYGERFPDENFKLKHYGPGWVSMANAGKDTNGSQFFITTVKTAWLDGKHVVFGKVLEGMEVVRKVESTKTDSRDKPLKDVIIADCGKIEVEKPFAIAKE
Chain of Peptidyl-prolyl cis-trans isomerase H (O43447 whole entry): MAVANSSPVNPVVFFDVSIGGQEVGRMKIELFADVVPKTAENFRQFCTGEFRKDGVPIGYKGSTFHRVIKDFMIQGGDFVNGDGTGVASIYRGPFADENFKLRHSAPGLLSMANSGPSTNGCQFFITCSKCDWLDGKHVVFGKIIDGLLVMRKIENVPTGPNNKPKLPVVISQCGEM

| SMILES | Ki [1] | Ki [2] | Ki [3] | Ki [4] | Ki [5] |
| --- | --- | --- | --- | --- | --- |
| COc1ccc(-c2ccc(OC(F)(F)F)cc2)cc1C(=O)C1CCc2ccccc21 (centres undefined) [Aryl 1-indanylketone, 4] | 1.2 µM | 2.1 µM |  |  |  |
| COc1ccc(C(F)(F)F)cc1C(=O)C1CCc2ccccc21 (centres undefined) [Aryl 1-indanylketone, 5] | 10 µM | > 100 µM |  |  |  |
| COc1ccc2c(c1)C1(CC(C)c3ccccc31)C(=O)O2 (centres undefined) [Benzofuranone, 7] | 21 µM | > 100 µM |  |  |  |
| O=C(c1cc(-c2cc(F)cc([N+](=O)[O-])c2O)cc([N+](=O)[O-])c1O)C1CCc2ccccc21 (centres undefined) [Aryl 1-indanylketone, 1] | 0.52 µM | > 100 µM | > 100 µM | 29 µM | > 100 µM |

Now from value to compound, other results behind:

| Ki [1] | Ki [2] | SMILES | Ki [3] | Ki [4] | Ki [5] |
| --- | --- | --- | --- | --- | --- |
| 0.3 µM | 12 µM | Nc1cc(F)cc(-c2ccc(O)c(C(=O)C3CCc4ccccc43)c2)c1O (centres undefined) [Aryl 1-indanylketone, 2] | > 100 µM | > 100 µM | > 100 µM |
| 1.7 µM | 8.6 µM | COc1ccc(F)cc1-c1cc(N)c(O)c(C(=O)C2CCc3ccccc32)c1 (centres undefined) [Aryl 1-indanylketone, 3] |  |  |  |
| > 100 µM | > 100 µM | COc1ccc(F)cc1C(=O)C1(C)CCc2ccccc21 (centres undefined) [Aryl 1-indanylketone, 6] |  |  |  |
| > 100 µM | > 100 µM | O=C1Oc2ccccc2C12Cc1ccccc1C2 [Benzofuranone, 8] |  |  |  |
| > 100 µM | 63 µM | COc1ccc2c(c1)C(=O)C1(Cc3ccccc3C1)O2 [Benzofuranone, 9] |  |  |  |

From BindingDB's records for doi:10.1021/bi9007287 (Max Planck Research, 2009)
